{"source": "patent US12357622B2", "about": "“Pharmaceutical composition of S1PR modulators” (UNIVERSITA DEGLI STUDI DI FIRENZE, priority 2019, dated 2025)", "key": {"C2C12 myotubes [1]": {"tested_on": "C2C12 myotubes", "assay": "Phase contrast microscopy of cellular morphology of C2C12 myotubes (diameter, number of myonuclei)", "type": "cell-based, murine", "conditions": "for effect on atrophic morphology (myotube diameter, number of myonuclei): modulator(s) before Dexa 100 μM for 48 hours", "method": "(§1) C2C12 murine skeletal myoblasts obtained from the American Type Culture Collection (ATCC, Manassas, VA, USA) were cultured in Dulbecco's Modified Eagle's Medium (DMEM) (Sigma, Milan, Italy) with L-glutamine 1%, penicillin/streptomycin 1% (Sigma, Milan, Italy) and Foetal Bovine Serum 10% (FBS) (Sigma, Milan, Italy). For experiments with the myotubes, myoblasts were seeded in 6-wells plates at a concentration of 0.2×10^6 cells/ml. When the cells reached 90-100% confluence (72 hours after seeding), the medium was replaced with the differentiation medium (DM), consisting of DMEM containing antibiotics, glutamine and horse serum (HS) 2% (Sigma, Milan, Italy). The medium was changed every 24-48 hours. The complete cell differentiation was observed after 4-6 days of incubation with HS 2%. The C2C12 skeletal myotubes were incubated for 24-48 hours with the indicated compounds: Sphingosine 1-phosphate (S1P) 2 μM, or different concentration of CYM5520, VPC23019 and/or W146 (in the concentration range between 0.25 and 2 μM). CYM5478, TY52156 and siRNA specific for S1PR3 (NCBI ref NM_010101.4, sequence 5′-[…]-3 ′1118-1139 SEQ ID NO: 1, same size random oligonucleotides were used as negative control SCR-siRNA) were used in some of the experiments. The agonists/antagonists or S1PR3-siRNA or SCR-siRNA were added to the culture medium for 1 hour prior to treatment of the myotubes with dexamethasone (Dexa) 100 μM for 48 hours.\nThe images shown are representative of n. 5-6 observation frames for each treatment.\nThe C2C12 myoblasts were let to grow on a coverslip and when confluent they were moved on a differentiated medium for 4 days.\nThe C2C12 myotubes were grown on a coverslip and, when confluent, were moved onto a medium for the differentiation for 4 days. The cells were treated with the above reported combination of the three S1PR modulators before being incubated with Dexa for 48 hours. Then, the cells were fixed and observed with microscope."}, "Atrogin-1/MAFbx [2]": {"tested_on": "Atrogin-1/MAFbx", "assay": "Western Blotting analysis of Atrogin-1/MAFbx protein levels in C2C12 myotubes (atrophy induced by dexamethasone or TNFα)", "type": "cell-based, murine", "conditions": "for effect on Dexa-induced expression of Atrogin-1/MAFbx (protein) / expression of Atrogin-1/MAFbx (protein): C2C12 myotubes; for effect on Dexa-induced expression of Atrogin-1/MAFbx (protein): modulator(s) added 1 hour before Dexa 100 μM for 48 hours, 2 μM CYM5520, 1 μM VPC23019, 2 μM W146, 2 μM FTY720; for expression of Atrogin-1/MAFbx (protein): modulator(s) in absence of Dexa, 2 μM CYM5520, 1 μM VPC23019, 2 μM W146", "method": "as §1\nThe Western Blotting analysis was carried out for determining the protein levels of Atrogin-1/MAFbx in C2C12 myotubes. The cells were lysed at 4° C. with RIPA buffer containing TrisHCl 50 mM, pH 7.5, NaCl 120 mM, EDTA 1 mM, EGTA 6 mM, Na4P2O7 15 mM, NaF 20 mM, 1% of cocktail Nonidet and protease inhibitor (1.04 mM AEBSF, 0.08 mM of aprotinin, leupeptin 0.02 mM, bestatin 0.04 mM, pepstatin A […], E-64 […] (Sigma, St. Louis, MO, USA). The lysates were centrifuged at 600× g for 6 min at 4° C., and the proteins concentration was measured by using the Bradford assay (Bio-Rad, Hercules, CA). Aliquots containing 40 μg of proteins were diluted in loading buffer 2× (10% SDS, 50% glycerol, 0.25% bromophenol blue and 0.25 M Tris-HCl, pH 6.8) and boiled at 90° C. for 10 minutes to denature proteins. The samples were subjected to SDS-polyacrylamide 10-12% (SDS-PAGE) gel electrophoresis and to Western blotting on Amersham Hybond p 0.45 PVDF membrane (GE Healthcare, Buckinghamshire, UK). […] After blocking, the membranes were washed in PBST and then incubated overnight with a 1:1000 dilution of the primary antibody comprising rabbit polyclonal antibody with Atrogin-1/MAFbx. After sufficient washings with PBST, the membranes were incubated for 1 hour at room temperature with secondary antibodies conjugated with goat anti-rabbit or goat anti-mouse horseradish peroxidase (Santa Cruz, Texas, USA) at dilution 1:10.000/1:5.000. Following three washings with PBST, the bands corresponding to the immunoreactive proteins were seen by using reagents for the detection of the Western blotting ECL (GE Healthcare, Buckinghamshire, UK); and finally, the membranes were exposed to a high performance chemiluminescence film (GE Healthcare, Buckinghamshire, UK). The identity of the bands on the Western Blot membranes was confirmed by comparing them with a high-precision marker having a known molecular weight (BioRad, Hercules, CA). Densitometric analysis of the bands was performed by using NIH IMAGE J (ImageJ software, Bethesda, MD, USA) and Quantity-One (imaging and analysis software from Bio-Rad Laboratories, Hercules, CA) and the intensity of the band was indicated as a relative percentage (mean and standard deviation from the mean), obtained by calculating the ratio of the specific protein with respect to the β-actin intensity and normalizing it to the control, set to 1.\nTo test the role of exogenous S1Ps, the terminally differentiated myotubes were treated with the bioactive lipid."}, "S1PR3 receptor": {"tested_on": "S1PR3 receptor", "assay": "Silencing of the expression of the S1PR3 receptor by siRNA in C2C12 myotubes", "type": "cell-based", "conditions": "incubation with siRNA specific for mouse S1PR3", "method": "C2C12 murine skeletal myoblasts obtained from the American Type Culture Collection (ATCC, Manassas, VA, USA) were cultured in Dulbecco's Modified Eagle's Medium (DMEM) (Sigma, Milan, Italy) with L-glutamine 1%, penicillin/streptomycin 1% (Sigma, Milan, Italy) and Foetal Bovine Serum 10% (FBS) (Sigma, Milan, Italy). For experiments with the myotubes, myoblasts were seeded in 6-wells plates at a concentration of 0.2×10^6 cells/ml. When the cells reached 90-100% confluence (72 hours after seeding), the medium was replaced with the differentiation medium (DM), consisting of DMEM containing antibiotics, glutamine and horse serum (HS) 2% (Sigma, Milan, Italy). The medium was changed every 24-48 hours. The complete cell differentiation was observed after 4-6 days of incubation with HS 2%. The C2C12 skeletal myotubes were incubated for 24-48 hours with the indicated compounds: Sphingosine 1-phosphate (S1P) 2 μM, or different concentration of CYM5520, VPC23019 and/or W146 (in the concentration range between 0.25 and 2 μM). CYM5478, TY52156 and siRNA specific for S1PR3 (NCBI ref NM_010101.4, sequence 5′-CGGGGUCCUCUGCAAGUGA-3 ′1118-1139 SEQ ID NO: 1, same size random oligonucleotides were used as negative control SCR-siRNA) were used in some of the experiments. […]"}, "C2C12 myotubes [3]": {"tested_on": "C2C12 myotubes", "conditions": "cited from earlier work"}, "Atrogin-1/MAFbx [4]": {"tested_on": "Atrogin-1/MAFbx", "conditions": "C2C12 myotubes, cited from earlier work"}, "[5]": {"conditions": "composition of the invention with CYM5520 replaced by the named compound (2 μM), in the presence of Dexa"}}}
{"molecule": "CCCCCCCCc1ccc(CCC(N)(CO)CO)cc1", "note": "[FTY720]", "values": [{"measurement": "formation of autophagic vesicles (morphological analysis)", "setting": "C2C12 myotubes [1]; C2C12 myotubes, FIG. 3C", "value": "promote the formation of small autophagic vesicles"}, {"measurement": "effect on Dexa-induced expression of Atrogin-1/MAFbx (protein)", "setting": "Atrogin-1/MAFbx [2]", "value": "not affected"}]}
{"molecule": "Cc1cc(C(=O)Cn2cc(C#N)ccc2=O)c(C)n1Cc1ccccc1", "note": "[CYM5520]", "values": [{"measurement": "effect on atrophic morphology (myotube diameter, number of myonuclei)", "setting": "C2C12 myotubes [1]; C2C12 myotubes", "value": "not significantly reduced"}, {"measurement": "effect on Dexa-induced expression of Atrogin-1/MAFbx (protein)", "setting": "Atrogin-1/MAFbx [2]", "value": "only slightly counteracted the GC effect"}, {"measurement": "expression of Atrogin-1/MAFbx (protein)", "setting": "Atrogin-1/MAFbx [2]", "value": "no increase was observed"}]}
{"molecule": "S1PR3-siRNA: double-stranded RNA of 21 nucleotides, SEQ ID NO:1, silencing the expression of the S1PR3 receptor (CGGGGUCCUCUGCAAGUGA; combined with other compounds, further chemistry not given here) [Combination S1PR3-siRNA]", "values": [{"measurement": "reduction of expression of the S1PR3 protein", "setting": "S1PR3 receptor", "value": 40, "unit": "%"}, {"measurement": "reduction of expression of the S1PR3 protein", "setting": "S1PR3 receptor; listed as SEQ ID NO:1", "value": "about 40%"}]}
{"molecule": "CCCCCCc1cccc(NC(=O)[C@H](N)CCP(=O)(O)O)c1", "note": "[Combination W146]", "values": [{"measurement": "effect on atrophic morphology (myotube diameter, number of myonuclei)", "setting": "C2C12 myotubes [1]; C2C12 myotubes", "value": "not significantly reduced"}, {"measurement": "effect on Dexa-induced expression of Atrogin-1/MAFbx (protein)", "setting": "Atrogin-1/MAFbx [2]", "value": "did not counteract the effect of Dexa"}, {"measurement": "expression of Atrogin-1/MAFbx (protein)", "setting": "Atrogin-1/MAFbx [2]", "value": "did not induce"}]}
{"molecule": "Cc1cc(C(=O)Cn2cc(C(F)(F)F)ccc2=O)c(C)n1Cc1ccccc1", "note": "[CYM5478]", "values": [{"measurement": "effect on cellular morphology", "setting": "C2C12 myotubes [1]; [5]", "value": "effect comparable with that obtained with the combination of the invention"}, {"measurement": "effect on expression of Atrogin-1/MAFbx", "setting": "Atrogin-1/MAFbx [2]; [5]", "value": "effect comparable with that obtained with the combination of the invention"}]}
{"molecule": "CCCCCCCCc1cccc(NC(=O)C(N)COP(=O)(O)O)c1", "note": "(stereo not shown) [VPC23019, [2-amino-2-(3-octyl-phenylcarbamoyl)-ethyl] ester of phosphoric acid]", "values": [{"measurement": "effect on atrophic morphology (myotube diameter, number of myonuclei)", "setting": "C2C12 myotubes [1]; C2C12 myotubes", "value": "not significantly reduced"}, {"measurement": "effect on Dexa-induced expression of Atrogin-1/MAFbx (protein)", "setting": "Atrogin-1/MAFbx [2]", "value": "did not counteract the effect of Dexa"}, {"measurement": "expression of Atrogin-1/MAFbx (protein)", "setting": "Atrogin-1/MAFbx [2]", "value": "did not induce"}]}
{"molecule": "CCCCCCCCCCCCC/C=C/[C@@H](O)[C@@H](N)COP(=O)(O)O", "note": "[Combination S1P, Sphingosine 1-phosphate]", "values": [{"measurement": "cell morphology and number of nuclei", "setting": "C2C12 myotubes [3]; Dexa-treated cells in the presence of S1P, state of the art", "value": "no significant changes"}, {"measurement": "morphological parameters of the myotubes (diameter and number of myonuclei)", "setting": "C2C12 myotubes [3]; S1P without Dexa, FIG. 1B, 1C state of the art", "value": "slightly change"}, {"measurement": "Atrogin-1/MAFbx level", "setting": "Atrogin-1/MAFbx [4]; S1P (1 μM) before Dexa 100 μM for 48 hours, FIG. 1 state of the art", "value": "reduce the Atrogin-1/MAFbx level, restoring the basal levels"}, {"measurement": "expression of Atrogin-1/MAFbx", "setting": "Atrogin-1/MAFbx [4]; S1P (1 μM) without Dexa, FIG. 1A state of the art", "value": "significantly increase"}]}
